ChEMBL document CHEMBL1201862, “PubChem BioAssay data set” (2004)
Calls of active or inactive are those of the source.

Assays:
[1] = target: Cytochrome P450 2C9 (Homo sapiens, UniProt P11712); details: Potency
[2] = target: T1, Tyrosine-protein phosphatase non-receptor type 7 (Homo sapiens, UniProt P35236); assay type: functional
T1 sequence (P35236 whole entry): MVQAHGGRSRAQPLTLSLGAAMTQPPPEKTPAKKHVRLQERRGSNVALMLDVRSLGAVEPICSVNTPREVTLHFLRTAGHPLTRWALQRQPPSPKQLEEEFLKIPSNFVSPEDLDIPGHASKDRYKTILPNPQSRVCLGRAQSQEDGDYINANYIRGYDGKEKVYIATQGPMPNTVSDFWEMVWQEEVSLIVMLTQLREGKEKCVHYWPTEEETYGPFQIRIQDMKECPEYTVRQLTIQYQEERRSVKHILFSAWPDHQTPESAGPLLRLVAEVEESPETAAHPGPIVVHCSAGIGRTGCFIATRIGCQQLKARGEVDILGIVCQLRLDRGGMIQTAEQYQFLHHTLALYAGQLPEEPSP

[3] = target: Glyceraldehyde-3-phosphate dehydrogenase (Homo sapiens, UniProt P04406)
[4] = target: Heat shock cognate 71 kDa protein (Homo sapiens, UniProt P11142); experiment: In Vitro Hsc70 Dose Response Fluorescence Polarization Assay. [Related pubchem assays: 1072 ]
[5] = target: Heat shock 70 kDa protein 1A (Homo sapiens, UniProt P0DMV8); experiment: Hsp70 inhibitors, SAR follow-up, biochemical, fluorescence polarization (AID 1072)
[6] = target: T2, Dual specificity protein phosphatase 6 (Rattus norvegicus, UniProt Q64346)
T2 sequence (Q64346 whole entry): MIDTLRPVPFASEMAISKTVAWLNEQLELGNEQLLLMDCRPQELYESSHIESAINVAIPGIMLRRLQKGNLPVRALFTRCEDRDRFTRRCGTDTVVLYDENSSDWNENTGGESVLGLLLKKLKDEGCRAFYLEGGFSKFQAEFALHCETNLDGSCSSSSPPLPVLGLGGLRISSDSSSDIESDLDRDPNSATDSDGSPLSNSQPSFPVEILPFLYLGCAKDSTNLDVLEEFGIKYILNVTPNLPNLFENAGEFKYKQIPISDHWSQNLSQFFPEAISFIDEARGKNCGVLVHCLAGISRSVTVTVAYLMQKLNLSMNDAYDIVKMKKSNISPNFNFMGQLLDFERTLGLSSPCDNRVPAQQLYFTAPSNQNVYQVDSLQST

[7] = target: T2, Dual specificity protein phosphatase 6; assay type: functional
[8] = cells; assay type: functional, cell-based
[9] = Luminescence Cell-Based Dose Response HTS to Identify Inhibitors of 5'UTR Stem-Loop Driven Prion Protein mRNA Translation in H4 Neuroglioblastoma Cells. [Related pubchem assays: 1827 (Project Summary), 1813 (Primary HTS)]; assay type: functional
[10] = Luminescence-based counterscreen assay for KLF5 inhibitors: dose response cell-based high throughput screening assay to identify cytotoxic compounds using the IEC-6 intestinal epithelial cell line. [Related pubchem assays: 1700 (Primary screen.), 1834 (Confirmation screen.), 1858 (Summary AID.), 1905 (Counterscreen.)]; assay type: functional
[11] = cells; assay type: functional, cell-based; remark: listed apart in the source
[12] = THP-1 cell cytotoxicity, dose response, cytotoxicity control for non-replicating M. tuberculosis project (AID 489025); assay type: functional
[13] = HepG2 cell cytotoxicity, dose response, cytotoxicity control for non-replicating M. tuberculosis project (AID 489018); assay type: functional; details: Mycobacterium tuberculosis
[14] = Vero E6 cell cytotoxicity, dose response, cytotoxicity control for non-replicating M. tuberculosis project, secondary assay (AID 492998); assay type: functional, VeroE6; details: Vero C1008
[15] = cytotoxicity in HEK-293T cells, dose response, cytotoxicity control for TCR NF-kB inhibitor project, luminescence, T-cell screen hits (AID 489026); assay type: functional, cell-based;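 further: cells exposed to compound about 14 hours before the viability readout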
[16] = target: T3, Microphthalmia-associated transcription factor (Homo sapiens, UniProt O75030); experiment: TRPM1 promoter luciferase signal decrease, dose response, MITF inhibitor project, cell-based, SK-MEL-5, cherry-picked, set 3 (AID 493073); assay type: functional
T3 sequence (O75030 whole entry): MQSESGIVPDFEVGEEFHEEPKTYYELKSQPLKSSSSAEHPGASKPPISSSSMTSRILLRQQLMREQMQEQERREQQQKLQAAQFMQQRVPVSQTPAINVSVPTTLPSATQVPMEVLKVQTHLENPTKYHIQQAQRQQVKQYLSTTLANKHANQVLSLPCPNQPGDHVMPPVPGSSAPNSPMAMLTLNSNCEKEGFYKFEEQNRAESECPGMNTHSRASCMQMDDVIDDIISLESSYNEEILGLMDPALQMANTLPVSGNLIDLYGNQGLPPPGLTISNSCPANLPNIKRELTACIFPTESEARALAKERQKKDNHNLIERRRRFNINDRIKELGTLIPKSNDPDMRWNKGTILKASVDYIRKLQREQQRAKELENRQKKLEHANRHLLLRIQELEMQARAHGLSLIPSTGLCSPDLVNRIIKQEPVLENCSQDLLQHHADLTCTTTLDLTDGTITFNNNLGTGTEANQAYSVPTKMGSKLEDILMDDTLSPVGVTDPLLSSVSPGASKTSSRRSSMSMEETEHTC

[17] = tested on: HEK293; experiment: inhibitors of LMP1-driven NF-kB reporter, dose response, cell-based, HEK293, luciferase, cherry-pick (AID 588343); assay type: functional; details: Homo sapiens
[18] = tested on: INS1; experiment: beta cell apoptosis inhibitors, cytokine rescue, dose response, luminescence, retest (AID 449756); assay type: functional, cell-based; details: Rattus norvegicus;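 further: cell death triggered by IL-1 beta plus TNF-alpha plus IFN-gamma mixture; protective hits raise ATP signal compared with cytokine alone wells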
[19] = target: T4, Estrogen receptor (Homo sapiens, UniProt P03372); experiment: potentiators of ERα–SRC-1 coactivator binding, dose response, biochemical, TR-FRET, ERα LBD (AID 737)
T4 sequence (P03372 whole entry): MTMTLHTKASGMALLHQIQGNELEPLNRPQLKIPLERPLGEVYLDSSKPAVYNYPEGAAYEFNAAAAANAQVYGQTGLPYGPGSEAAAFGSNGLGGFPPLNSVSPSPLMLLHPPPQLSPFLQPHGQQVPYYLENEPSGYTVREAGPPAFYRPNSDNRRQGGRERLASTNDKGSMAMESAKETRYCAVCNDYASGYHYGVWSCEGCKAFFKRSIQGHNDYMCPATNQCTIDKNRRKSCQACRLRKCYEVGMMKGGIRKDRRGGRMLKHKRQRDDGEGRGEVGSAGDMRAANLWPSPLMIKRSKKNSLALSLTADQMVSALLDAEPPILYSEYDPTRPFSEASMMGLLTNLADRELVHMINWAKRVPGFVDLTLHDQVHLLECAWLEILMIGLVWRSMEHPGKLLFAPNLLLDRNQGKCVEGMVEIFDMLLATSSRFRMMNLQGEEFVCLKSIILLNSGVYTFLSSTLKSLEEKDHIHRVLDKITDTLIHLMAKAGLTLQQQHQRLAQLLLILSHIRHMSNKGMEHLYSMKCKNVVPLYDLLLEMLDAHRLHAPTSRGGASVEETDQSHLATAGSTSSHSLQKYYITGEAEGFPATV

[20] = target: Mothers against decapentaplegic homolog 3 (Homo sapiens, UniProt P84022); experiment: Smad3 binding inhibitors, lysate ELISA, dose response, cell lysate, secondary confirmation, chemiluminescent ELISA, HEK293 lysate (AID 1058); assay type: functional
Mothers against decapentaplegic homolog 3, sequence (P84022 whole entry): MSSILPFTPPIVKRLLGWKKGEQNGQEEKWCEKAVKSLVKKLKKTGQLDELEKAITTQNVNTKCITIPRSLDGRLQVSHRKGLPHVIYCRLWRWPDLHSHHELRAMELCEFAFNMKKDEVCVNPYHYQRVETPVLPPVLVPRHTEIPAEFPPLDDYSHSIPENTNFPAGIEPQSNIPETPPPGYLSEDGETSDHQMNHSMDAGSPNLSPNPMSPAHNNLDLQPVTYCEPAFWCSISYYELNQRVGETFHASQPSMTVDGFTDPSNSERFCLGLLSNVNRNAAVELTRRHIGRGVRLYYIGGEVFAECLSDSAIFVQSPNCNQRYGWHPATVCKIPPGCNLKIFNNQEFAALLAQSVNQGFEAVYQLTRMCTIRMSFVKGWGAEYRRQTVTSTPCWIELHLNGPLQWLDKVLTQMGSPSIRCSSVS

Glyceraldehyde-3-phosphate dehydrogenase, sequence (P04406 whole entry): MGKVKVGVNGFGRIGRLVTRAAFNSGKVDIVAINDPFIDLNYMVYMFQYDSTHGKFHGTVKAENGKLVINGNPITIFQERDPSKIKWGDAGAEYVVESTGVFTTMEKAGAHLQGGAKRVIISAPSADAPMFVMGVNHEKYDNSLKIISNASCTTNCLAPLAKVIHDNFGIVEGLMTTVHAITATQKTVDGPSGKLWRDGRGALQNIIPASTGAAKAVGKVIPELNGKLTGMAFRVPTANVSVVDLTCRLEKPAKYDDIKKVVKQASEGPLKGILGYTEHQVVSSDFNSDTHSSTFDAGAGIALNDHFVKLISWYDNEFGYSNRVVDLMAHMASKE
Cytochrome P450 2C9, sequence (P11712 whole entry): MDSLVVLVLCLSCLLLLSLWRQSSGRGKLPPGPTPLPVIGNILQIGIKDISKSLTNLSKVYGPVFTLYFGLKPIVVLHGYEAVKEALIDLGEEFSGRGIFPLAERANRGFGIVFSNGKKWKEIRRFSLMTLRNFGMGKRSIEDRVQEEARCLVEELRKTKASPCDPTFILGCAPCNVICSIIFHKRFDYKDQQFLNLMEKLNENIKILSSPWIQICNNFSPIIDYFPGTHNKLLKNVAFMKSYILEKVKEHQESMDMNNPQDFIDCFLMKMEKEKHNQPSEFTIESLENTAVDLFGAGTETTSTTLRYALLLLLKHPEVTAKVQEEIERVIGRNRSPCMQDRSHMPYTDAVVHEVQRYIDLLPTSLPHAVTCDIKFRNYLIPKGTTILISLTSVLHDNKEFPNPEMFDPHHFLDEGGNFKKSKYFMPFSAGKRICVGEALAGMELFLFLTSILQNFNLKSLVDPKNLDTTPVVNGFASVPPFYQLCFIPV
Heat shock cognate 71 kDa protein, sequence (P11142 whole entry): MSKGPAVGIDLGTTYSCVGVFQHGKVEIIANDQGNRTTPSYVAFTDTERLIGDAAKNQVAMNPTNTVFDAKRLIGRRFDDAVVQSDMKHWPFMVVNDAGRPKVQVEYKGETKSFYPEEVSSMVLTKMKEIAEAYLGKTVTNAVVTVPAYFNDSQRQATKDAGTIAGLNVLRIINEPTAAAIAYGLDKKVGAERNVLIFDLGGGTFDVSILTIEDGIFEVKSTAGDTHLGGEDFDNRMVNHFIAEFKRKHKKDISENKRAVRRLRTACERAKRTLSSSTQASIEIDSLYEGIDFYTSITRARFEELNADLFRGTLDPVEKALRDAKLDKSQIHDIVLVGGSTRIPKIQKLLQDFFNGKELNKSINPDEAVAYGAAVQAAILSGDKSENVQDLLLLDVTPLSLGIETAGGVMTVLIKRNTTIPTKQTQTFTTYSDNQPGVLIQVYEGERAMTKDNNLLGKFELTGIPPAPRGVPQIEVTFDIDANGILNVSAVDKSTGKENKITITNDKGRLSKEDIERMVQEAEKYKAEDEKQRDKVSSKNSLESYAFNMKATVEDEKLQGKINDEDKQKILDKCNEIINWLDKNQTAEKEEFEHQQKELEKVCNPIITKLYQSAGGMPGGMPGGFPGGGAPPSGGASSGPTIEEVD
Heat shock 70 kDa protein 1A, sequence (P0DMV8 whole entry): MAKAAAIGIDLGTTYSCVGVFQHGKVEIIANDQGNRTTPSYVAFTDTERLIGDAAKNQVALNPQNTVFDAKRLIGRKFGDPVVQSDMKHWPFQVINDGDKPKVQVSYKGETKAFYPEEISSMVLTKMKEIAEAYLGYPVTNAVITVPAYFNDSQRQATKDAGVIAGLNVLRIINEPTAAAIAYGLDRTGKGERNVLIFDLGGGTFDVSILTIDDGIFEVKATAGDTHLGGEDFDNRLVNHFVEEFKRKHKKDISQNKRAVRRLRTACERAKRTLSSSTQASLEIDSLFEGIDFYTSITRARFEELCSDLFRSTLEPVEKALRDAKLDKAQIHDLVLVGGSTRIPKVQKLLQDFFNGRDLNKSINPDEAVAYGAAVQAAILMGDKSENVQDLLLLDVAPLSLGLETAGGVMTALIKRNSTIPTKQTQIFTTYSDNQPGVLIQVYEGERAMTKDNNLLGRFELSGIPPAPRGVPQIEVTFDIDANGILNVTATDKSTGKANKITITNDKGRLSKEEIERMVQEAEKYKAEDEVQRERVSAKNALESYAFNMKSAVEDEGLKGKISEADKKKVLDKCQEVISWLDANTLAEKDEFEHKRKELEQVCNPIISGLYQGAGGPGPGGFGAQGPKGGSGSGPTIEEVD

CCOC(=O)OCC1OC(c2ccccc2)C=CC1Oc1ccc(F)cc1C (stereo not given)
AC50 [1]: 3.16 µM (inconclusive)

CCCCOC(=O)c1ccc2c(c1)C1C=CCC1C(C(=O)O)N2 (stereo not given)
IC50 [2]: 10.4 µM (active)
IC50 [3]: 76.6 µM (active)
IC50 [4]: > 100 µM (not active)
IC50 [5]: 63.3 µM (active)
IC50 [6]: 41.8 µM (active)
IC50 [7]: 4.02 µM (active)

COc1ccc(N/N=C/c2c(C(=O)O)ccc3ccccc23)cc1
EC50 [8]: 9.66 µM (active)
EC50 [9]: 9.27 µM (active)
IC50 [10]: 37 µM (not active)
EC50 [11]: > 350 µM (not active)
CC50 [12]: 0.364 µM (active)
CC50 [13]: 4.9 µM (active)
CC50 [14]: 2 µM (active)
IC50 [15]: > 80 µM (inactive)
AC50 [16]: 5.11 µM (active)
AC50 [17]: 4.56 µM (active)
AC50 [18]: 0.786 µM (active)

C[C@]12CC[C@@H]3c4ccc(O)cc4C(=O)C[C@H]3[C@@H]1CC[C@@H]2O
EC50 [19]: 12.5 µM (active)

O=C(O)CCc1ccc(O)c(O)c1 [DIHYDROCAFFEIC ACID]
IC50 [20]: > 50 µM (not active)
